Reference: patent US11141488B2, “Compositions comprising biodegradable copolymers for prolonged local release of an antibiotic” (DEXCEL PHARMA TECHNOLOGIES LTD., priority 2017, dated 2021)
Read-outs that look alike come from different tables or passages of the source.

Legend:
[1] = parenteral administration, levels exceeded for prolonged periods of time; cited from earlier work
[2] = rat skin tissue
Protocol: The site of injection was located at the right mid trunk area close to the spinal cord of the animals. The fur covering the flank and dorsal areas was removed by close clipping using an electric clipper up to 96 hours prior to dosing. Injections were performed using 18-19 G needle. The procedure was performed under general anesthesia. Blood samples were collected at 15 minutes, 30 minutes, 45 minutes, 1 hour, 1.5 hours, 2 hours, 4 hours, 6 hours, 8 hours, 24 hours, 48 hours, 72 hours, 1 week, 2 weeks, 3 weeks, 4 weeks, 6 weeks, and 8 weeks.
Blood samples were processed by centrifugation (3,000 G for 15 minutes at room temperature). Following centrifugation, plasma was removed into plastic tubes, followed by freezing using liquid nitrogen to (−70)-(−80)° C. for subsequent analysis.
Tissue collection was performed following removal of the dorsal trunk area by close clipping using an electrical clipper, if needed. The skin at the dorsal site of the animal was removed and pinned to a cork board. […] The injection site A is marked by a circular area of 1 cm in diameter (1×0.8 cm diameter sample). Circular strips B, C, and D each indicate 0.5 cm strips in width encircling circle (at least 4 samples were taken from each strip).
Thereafter, the samples were injected into a LC-MS/MS system (3 μl for samples at a concentration range of 2.5-170 μg/ml and 20 μl for samples at a concentration range of 0.075-2.5 μg/ml). […] Thereafter, 20 μl of the samples were injected into a LC-MS/MS system.
Sample concentrations were obtained by interpolation from the run defined calibration curve. The raw data was processed using AB SCIEX 1.5.1 software.

[3] = Local and systemic gentamicin levels after single intramuscular injection in rabbits; assay type: in vivo, New Zealand White (NZW) rabbits; conditions: rabbit muscle
Protocol: Prior to injection, a skin incision was made in order to expose the muscle. The site of injection was marked by a non-absorbable suture at the upper layer of the muscle. […] Following injection, the skin was closed using surgical clips. The procedure was performed under general anesthesia. Animals were clinically observed for up to 8 weeks post-dosing, if applicable.
Tissue collection was performed by resecting the right paravertebral muscle, transversally slicing into ˜1 cm thick serial sections (total of 7 serial sections), when the injection site was located at the core center of the central section. […] At the injection site, one sample ( ? ) was taken.

gentamicin
systemic levels above which ototoxicity and nephrotoxicity are induced [1]: 10 to 12 µg/mL
local concentration of gentamicin, area A ([2]; injection site, 24 hours after single 0.2 ml SC injection of RA:SA (70:30) copolymer with 20 wt % gentamicin sulfate): 362 µg/mL
local concentration of gentamicin, area B ([2]; strip B of FIG. 8, 24 hours after single 0.2 ml SC injection of RA:SA (70:30) copolymer with 20 wt % gentamicin sulfate): 218 µg/mL
local concentration of gentamicin, area C ([2]; strip C of FIG. 8, 24 hours after single 0.2 ml SC injection of RA:SA (70:30) copolymer with 20 wt % gentamicin sulfate): 43 µg/mL
local concentration of gentamicin, area D ([2]; strip D of FIG. 8, 24 hours after single 0.2 ml SC injection of RA:SA (70:30) copolymer with 20 wt % gentamicin sulfate): 31 µg/mL
local concentration of gentamicin, area B ([3]; area B of FIG. 4, 24 hours after single 0.2 ml IM injection of RA:SA (70:30) copolymer with 20 wt % gentamicin sulfate): 46 µg/mL
local concentration of gentamicin, area C ([3]; area C of FIG. 4, 24 hours after single 0.2 ml IM injection of RA:SA (70:30) copolymer with 20 wt % gentamicin sulfate): 3 µg/mL
local concentration of gentamicin, area D ([3]; area D of FIG. 4, 24 hours after single 0.2 ml IM injection of RA:SA (70:30) copolymer with 20 wt % gentamicin sulfate): 6 µg/mL
local concentration of gentamicin, area A ([3]; injection site, 24 hours after single 0.2 ml IM injection of RA:SA (70:30) copolymer with 20 wt % gentamicin sulfate): 765 µg/mL
